From ChEMBL document CHEMBL5550147, “Supramolecular prodrug of SN38 based on endogenous albumin and SN38 prodrug modified with semaglutide side chain to improve the tumor distribution” (Bioorg Med Chem, 2024) come the findings set out here.

Active and inactive are the calls of the source. The rule behind the calls is not given here.

Data set [1] in a line: Stability in mouse plasma assessed as half life by HPLC analysis. Type of data set: ADME, cell-free.
Data set [2] can be described thus: Volume of distribution in BALB/c mouse at 28 mg/kg, iv measured for 1 to 72 hrs by HPLC analysis. The following applies: in vivo, time 1-72 hrs. The format is ADME, organism-based.
Data set [3] can be described thus: Drug accumulation in human HT-29 cells xenografted in nude mouse assessed as fold increase at 28 mg/kg, iv measured for 24 hrs by HPLC analysis relative to Irinotecan. Type of data set: ADME, organism-based. The following applies: in vivo.
The nature of data set [4]: Drug accumulation in lung of nude mouse xenografted with human HT-29 cells assessed as fold change in free SN38 at 28 mg/kg, iv measured for 50 hrs by HPLC analysis relative to Irinotecan. Type of data set: ADME, organism-based. As to conditions: in vivo.
Data set [5] can be described thus: Drug accumulation in human HT-29 cells xenografted in nude mouse assessed as fold increase at 28 mg/kg, iv measured for 6 hrs by HPLC analysis relative to Irinotecan. As to conditions: in vivo. Type of data set: ADME, organism-based.
The nature of data set [6]: Drug distribution in lung of nude mouse xenografted with human HT-29 cells at 17.9 mg/kg, iv measured for 1 to 48 hrs by HPLC analysis. The format is ADME, organism-based. As to conditions: in vivo, time 1-48 hrs.
For the next data set, the system named is MIA PaCa-2. Nature of the data set: Cytotoxicity against human MIA PaCa-2 cells incubated for 48 hrs by MTT assay. Type of data set: functional, cell-based.
Data set [7] in a line: Clearance in BALB/c mouse at 28 mg/kg, iv measured for 1 to 72 hrs by HPLC analysis. The following applies: in vivo, time 1-72 hrs. The format is ADME, organism-based.
A further data set has as its system MG-63. Nature of the data set: Cytotoxicity against human MG-63 cells incubated for 48 hrs by MTT assay. Type of data set: functional, cell-based.
The nature of data set [8]: Drug accumulation in human HT-29 cells xenografted in nude mouse assessed as fold increase at 28 mg/kg, iv measured for 1 hr by HPLC analysis relative to Irinotecan. Type of data set: ADME, organism-based. As to conditions: in vivo.
The subject of data set [9] is HT-29. The data set can be described thus: Anti-tumor activity against human HT-29 cells xenografted in nude mouse at 28 mg/kg, iv measured for 35 days relative to control. The following applies: HT-29, 840 h, time 35 day, read-out: TGI. The format is functional.
Data set [10] is described as follows: Toxicity in nude mouse xenografted with human HT-29 cells assessed as body weight change at 28 mg/kg, iv measured for 35 days. The format is organism-based. As to conditions: in vivo, 840 h, time 35 day.
The nature of data set [11]: Cmax in BALB/c mouse at 28 mg/kg, iv measured for 1 to 72 hrs by HPLC analysis. Type of data set: ADME, organism-based. The following applies: in vivo, time 1-72 hrs.
For another data set, the system named is A549. The data set can be described thus: Cytotoxicity against human A549 cells incubated for 48 hrs by MTT assay. Type of data set: functional, cell-based.
Data set [12] has as its system HT-29. Nature of the data set: Cytotoxicity against human HT-29 cells incubated for 48 hrs by MTT assay. Type of data set: functional, cell-based.
The nature of data set [13]: Prodrug conversion in mouse plasma assessed as drug release incubated for 24 hrs by HPLC analysis. The format is ADME, cell-free.
Data set [14] in a line: Stability of compound in PBS at pH 6.5 at 50 uM by HPLC analysis. The format is physicochemical. As to conditions: buffer, pH 6.5, 50 µM.
Data set [15] can be described thus: AUC (0 to infinity) in BALB/c mouse at 28 mg/kg, iv measured for 1 to 72 hrs by HPLC analysis. The format is ADME, organism-based. The following applies: in vivo, time 1-72 hrs.
Data set [16] in a line: Drug accumulation in human HT-29 cells xenografted in nude mouse assessed as fold increase at 28 mg/kg, iv measured for 48 hrs by HPLC analysis relative to Irinotecan. The format is ADME, organism-based. As to conditions: in vivo.
A short description of data set [17]: Stability of compound in PBS at pH 7.4 at 50 uM by HPLC analysis. The format is physicochemical. As to conditions: buffer, pH 7.4, 50 µM.
A further data set relates to HepG2. The data set can be described thus: Cytotoxicity against human HepG2 cells incubated for 48 hrs by MTT assay. Type of data set: functional, cell-based.
A short description of data set [18]: Half life in BALB/c mouse at 28 mg/kg, iv measured for 1 to 72 hrs by HPLC analysis. The format is ADME, organism-based. As to conditions: in vivo, time 1-72 hrs.
Data set [19] deals with HT-29. Nature of the data set: Anti-tumor activity against human HT-29 cells xenografted in nude mouse at 15 mg/kg, iv measured for 35 days relative to control. Type of data set: functional. As to conditions: HT-29, 840 h, time 35 day, read-out: TGI.
Data set [20] in a line: Drug distribution in lung of nude mouse xenografted with human HT-29 cells at 15 mg/kg, iv measured for 1 to 48 hrs by HPLC analysis. The following applies: in vivo, time 1-48 hrs. The format is ADME, organism-based.

Regarding `CCc1c2c(nc3ccc(O)cc13)-c1cc3c(c(=O)n1C2)COC(=O)[C@@]3(CC)OC(=O)CNC(=O)CCCCCCCCCCCCCCCCC(=O)O`, the figures for the half-life in [1] and in data set [18] were 14 h and 4.37 h, respectively. In [2], this compound gave a volume of distribution (Vd) of 0.191 L. For the same compound, the “fold change (FC)” value in data set [3] is on record as 1.6; in data set [4], 0.3; in data set [5], 2.1; in [8] it was 2.5; in data set [16], 7.8. In addition, the Drug uptake entry in data set [6] was “Active”. The result with MIA PaCa-2, in the data set with MG-63, in the data set with A549, with HT-29 [12] and with HepG2 was Active. The CL in data set [7] worked out at 0.517 mL/min/kg. Also, the inhibition in vivo at 28 mg/kg with HT-29 [9] came out at 71%. For the same compound, the Activity entry in [10] is “Non-Toxic”. This compound also registered a Cmax in data set [11] of 3670 ng/mL. The Drug metabolism result in data set [13] is “Metabolite_Detected”. For the same compound, the Stability result in [14] and in data set [17] was “Stable” throughout. Also, in data set [15], the AUC was 23130 ng·h/mL.
Consider `CCc1c2c(nc3ccc(OC(=O)N4CCC(N5CCCCC5)CC4)cc13)-c1cc3c(c(=O)n1C2)COC(=O)[C@]3(O)CC` [IRINOTECAN], for which the inhibition in vivo at 15 mg/kg in the data set on HT-29 [19] is 62.3%. Further, the Drug uptake entry in [20] is “Active”.
